Measured values as given in patent publication US20210343946A1, “INFRARED ABSORBERS, INFRARED ABSORBING/BLOCKING FILMS AND PHOTOELECTRIC DEVICES AND ORGANIC SENSORS AND ELECTRONIC DEVICES” (Samsung Electronics Co., Ltd., priority 2020, published 2021).

Key:
[1] = Light absorption characteristics in a solution state (UV-Vis-NIR spectrometer); assay type: physicochemical; settings: for λmax (nm) (solution): 1×10^−5 M; for UV-vis: λmax: CH2Cl2 Solution, in synthesis example
Description: The compounds according to Synthesis Examples 1 to 5 in dichloromethane, the compounds according to Comparative Synthesis Examples 1 and 2 in toluene, and the compound of Comparative Synthesis Example 3 in chloroform are respectively dissolved at a concentration of 1×10^−5 M to prepare solutions, and light absorption characteristics of the compounds in a solution state are evaluated. The light absorption characteristics are evaluated by using an UV-Vis-NIR spectrometer (UV-3600 Plus, Shimadzu Corp.) to measure a maximum absorption wavelength (λmax).

[2] = Light absorption characteristics in a thin film state (UV-Vis-NIR spectrometer); assay type: physicochemical; settings: thin film spin-coated from chloroform on glass substrate
Description: In addition, the compounds of Synthesis Examples 1 to 5 are respectively dissolved in chloroform and coated on a glass substrate at 800 rpm for 60 seconds and at 400 rpm for 5 seconds with a spin coater, and the light absorption characteristics thereof in a thin film state are evaluated. The light absorption characteristics are evaluated by measuring a maximum absorption wavelength (λmax) by using a UV-Vis-NIR spectrometer (UV-3600 Plus, Shimadzu Corp.).

| λmax (nm) (solution) ([1]; in toluene) | SMILES | λmax (nm) (thin film) [2] | UV-vis: λmax [1] | λmax (nm) (solution) ([1]; in dichloromethane) |
| --- | --- | --- | --- | --- |
| 920 nm | CCCCCCCCOc1ccc(N(c2ccc(OCCCCCCCC)cc2)c2ccc(-c3ccc(-c4c5c(c(-c6ccc(-c7ccc(N(c8ccc(OCCCCCCCC)cc8)c8ccc(OCCCCCCCC)cc8)cc7)s6)c6nsnc46)N=S=N5)s3)cc2)cc1 [Comparative Synthesis Example 1, reference compound] | – | – | – |
| 848 nm | CCCCCCCCC1(CCCCCCCC)c2ccccc2-c2ccc(-c3ccc(-c4c5c(c(-c6ccc(-c7ccc8c(c7)C(CCCCCCCC)(CCCCCCCC)c7ccccc7-8)s6)c6nsnc46)N=S=N5)s3)cc21 [Comparative Synthesis Example 2, reference compound] | – | – | – |
| – | CCCCCCOc1cc(-c2c3c(c(-c4cc(OCCCCCC)c(-c5cc6c(s5)c5sc(CCCCCC)cc5n6CCCCCC)s4)c4nsnc24)N=[Se]=N3)sc1-c1cc2c(s1)c1sc(CCCCCC)cc1n2CCCCCC [Synthesis Example 1] | 1226 nm | 1256 nm | 1256 nm |
| – | CCCCCCOc1cc(-c2c3c(c(-c4cc(OCCCCCC)c(-c5cc6c(s5)c5sc(CCCCCC)cc5n6CCCCCC)s4)c4nsnc24)N=S=N3)sc1-c1cc2c(s1)c1sc(CCCCCC)cc1n2CCCCCC [Synthesis Example 2] | 1120 nm | 1114 nm | 1076 nm |
| – | CCCCCCOc1cc(-c2c3nsnc3c(-c3cc(OCCCCCC)c(-c4cc5c(s4)c4sc(CCCCCC)cc4n5CCCCCC)s3)c3nc4c5ncccc5c5cccnc5c4nc23)sc1-c1cc2c(s1)c1sc(CCCCCC)cc1n2CCCCCC [Synthesis Example 3] | 1166 nm | 1143 nm | 1143 nm |
| – | CCCCCCOc1cc(-c2c3nsnc3c(-c3cc(OCCCCCC)c(-c4cc5c(s4)c4sc(CCCCCC)cc4n5CCCCCC)s3)c3nc4c5ccccc5c5ccccc5c4nc23)sc1-c1cc2c(s1)c1sc(CCCCCC)cc1n2CCCCCC [Synthesis Example 4] | 1058 nm | 1020 nm | 1020 nm |
| – | CCCCCCOc1cc(-c2c3c(c(-c4cc(OCCCCCC)c(-c5cc6c(s5)c5sc(CCCCCC)cc5n6CCCCCC)s4)c4n[se]nc24)N=[Se]=N3)sc1-c1cc2c(s1)c1sc(CCCCCC)cc1n2CCCCCC [Synthesis Example 5] | 1285 nm | 1376 nm | 1376 nm |
